“And” between values parts separate entries of the source, which are not always exact repeats. Identical values can stand only once.
What was measured:
Assay type in all cases: in vivo
Wild Oats [1] = test: pre-emergence herbicide test; conditions: Avena fatua, pre-emergence, 0.25 lb/A; read-out: % plant inhibition
Method: (§1) Topsoil was placed in an aluminum pan and compacted to a depth of 1.3 to 1.6 cm from the top of the pan. On the top of the soil was placed a predetermined number of seeds of each of several monocotyledonous and dicotyledonous annual plant species and/or vegetative propagules of various perennial plant species. The pan was then level filled with a cover layer of topsoil to which was added a known amount of active ingredient either prior to or after application of the cover layer. The active ingredient was dissolved or suspended in an organic solvent, e.g., acetone, or water as carrier for application to the cover layer. The pans were moved to a greenhouse bench where they were thereafter watered from below as needed to give adequate moisture for germination and growth. In some cases, an initial overhead irrigation of 1/4 inch of water was applied immediately after treatment.
(§2) Approximately 14 days after seeding and treating, the pans were observed and the results (% inhibition) were recorded.
(§3) The tables below summarize the results of the pre-emergence herbicidal activity tests of compounds of this invention tested with warm season plants (Tables 2a-2d) and cool season plants (Tables 3a and 3b). The herbicidal rating shown in these tables is the percent inhibition of each plant species. The plant species usually regarded as weeds are identified in the tables by single letter headings and crop species identified by two letter headings both headings being above the columns in accordance with the following legend: […]

Downy Brome [2] = test: pre-emergence herbicide test; conditions: Bromus tectorum, pre-emergence, 0.25 lb/A; read-out: % plant inhibition
Method: as §1, §2, §3

Barnyardgrass [3] = test: pre-emergence herbicide test; conditions: 0.25 lb/A
Method: as §1, §2, §3

Wheat [4] = test: pre-emergence herbicide test; conditions: Triticum aestivum, pre-emergence, 0.25 lb/A; read-out: % plant inhibition
Method: as §1, §2, §3

Green Foxtail [5] = test: pre-emergence herbicide test; conditions: Setaria viridis, pre-emergence; 0.25 lb/A; read-out: % plant inhibition
Method: as §1, §2, §3

Seedling Johnsongrass [6] = test: pre-emergence herbicide test; conditions: 0.25 lb/A
Method: as §1, §2, §3

Common Chickweed [7] = test: pre-emergence herbicide test; conditions: pre-emergence, 0.25 lb/A; read-out: % plant inhibition
Method: as §1, §2, §3

Corn [8] = test: pre-emergence herbicide test; conditions: 0.25 lb/A; for inhibition at 280.212 g/ha: Zea mays, pre-emergence, read-out: % plant inhibition
Method: as §1, §2, §3

Bedstraw Catchweed [9] = test: pre-emergence herbicide test; conditions: Galium aparine, pre-emergence, 0.25 lb/A; read-out: % plant inhibition
Method: as §1, §2, §3

Birdseye Speedwell [10] = test: pre-emergence herbicide test; conditions: pre-emergence, 0.25 lb/A; read-out: % plant inhibition
Method: as §1, §2, §3

Blackgrass [11] = test: pre-emergence herbicide test; conditions: Alopecurus myosuroides, pre-emergence, 0.25 lb/A; read-out: % plant inhibition
Method: as §1, §2, §3

Rape [12] = test: pre-emergence herbicide test; conditions: pre-emergence, 0.25 lb/A; read-out: % plant inhibition
Method: as §1, §2, §3

Velvetleaf [13] = test: pre-emergence herbicide test; conditions: 0.25 lb/A; for inhibition at 280.212 g/ha: Abutilon theophrasti, pre-emergence, read-out: % plant inhibition
Method: as §1, §2, §3

Giant Foxtail [14] = test: pre-emergence herbicide test; conditions: 0.25 lb/A; for inhibition at 280.212 g/ha: Setaria faberi, pre-emergence, read-out: % plant inhibition
Method: as §1, §2, §3

Wild Oats [15] = test: post-emergence herbicide test; conditions: Avena fatua, post-emergence, 0.25 lb/A; read-out: % plant inhibition
Excerpt: (§4) Topsoil was placed in aluminum pans having holes in the bottom and compacted to a depth of 1.3 to 1.6 cm from the top of the pan. A predetermined number of seeds of each of several dicotyledonous and monocotyledonous annual plant species and/or vegetative propagules for the perennial plant species were placed on the soil and pressed into the soil surface. The seeds and/or vegetative propagules were covered with soil and leveled. The pans were then placed on a bench in the greenhouse and watered either from overheard irrigation or by subirrigation as needed. After the plants reach the desired age (two to three weeks), each pan, is removed individually to a spraying chamber and sprayed by means of an atomizer, operating at a spray pressure of 170.3 kPa […] at the application rates noted. In the spray solution was an amount of an emulsifying agent mixture to give a spray solution or suspension which contains about 0.4% by volume of the emulsifier. The spray solution or suspension contained a sufficient amount of the candidate chemical in order to give application rates of the active ingredient corresponding to those shown in Tables 4 and 5, while applying a total amount of solution or suspension equivalent to 1870 L/Ha (200 gallons/acre). […] The post-emergent herbicidal activity shown in these tables is the percent inhibition of each plant species. Testing with warm season and cool season plants is shown in tables 4a-4d and […], respectively.

Downy Brome [16] = test: post-emergence herbicide test; conditions: Bromus tectorum, post-emergence, 0.25 lb/A; read-out: % plant inhibition
Excerpt: as §4

Barnyardgrass [17] = test: post-emergence herbicide test; conditions: Echinochloa crus-galli, post-emergence, 0.25 lb/A; read-out: % plant inhibition
Excerpt: as §4

Wheat [18] = test: post-emergence herbicide test; conditions: Triticum aestivum, post-emergence, 0.25 lb/A; read-out: % plant inhibition
Excerpt: as §4

Morning Glory [19] = test: post-emergence herbicide test; conditions: Ipomoea, post-emergence, 0.25 lb/A; read-out: % plant inhibition
Excerpt: as §4

Green Foxtail [20] = test: post-emergence herbicide test; conditions: Setaria viridis, post-emergence, 0.25 lb/A; read-out: % plant inhibition
Excerpt: as §4

Seedling Johnsongrass [21] = test: post-emergence herbicide test; conditions: Sorghum halepense, post-emergence, 0.25 lb/A; read-out: % plant inhibition
Excerpt: as §4

Common Chickweed [22] = test: post-emergence herbicide test; conditions: post-emergence, 0.25 lb/A; read-out: % plant inhibition
Excerpt: as §4

Corn [23] = test: post-emergence herbicide test; conditions: Zea mays, post-emergence, 0.25 lb/A; read-out: % plant inhibition
Excerpt: as §4

Bedstraw Catchweed [24] = test: post-emergence herbicide test; conditions: Galium aparine, post-emergence, 0.25 lb/A; read-out: % plant inhibition
Excerpt: as §4

Cocklebur [25] = test: post-emergence herbicide test; conditions: Xanthium strumarium, post-emergence, 0.25 lb/A; read-out: % plant inhibition
Excerpt: as §4

Birdseye Speedwell [26] = test: post-emergence herbicide test; conditions: post-emergence, 0.25 lb/A; read-out: % plant inhibition
Excerpt: as §4

Blackgrass [27] = test: post-emergence herbicide test; conditions: Alopecurus myosuroides, post-emergence, 0.25 lb/A; read-out: % plant inhibition
Excerpt: as §4

Rape [28] = test: post-emergence herbicide test; conditions: post-emergence, 0.25 lb/A; read-out: % plant inhibition
Excerpt: as §4

Velvetleaf [29] = test: post-emergence herbicide test; conditions: Abutilon theophrasti, post-emergence, 0.25 lb/A; read-out: % plant inhibition
Excerpt: as §4

Giant Foxtail [30] = test: post-emergence herbicide test; conditions: Setaria faberi, post-emergence, 0.25 lb/A; read-out: % plant inhibition
Excerpt: as §4

Soybean [31] = test: post-emergence herbicide test; conditions: Glycine max, post-emergence, 0.25 lb/A; read-out: % plant inhibition
Excerpt: as §4

Morning Glory [32] = test: pre-emergence herbicide test; conditions: 0.25 lb/A
Method: as §1, §2, §3

Cocklebur [33] = test: pre-emergence herbicide test; conditions: Xanthium strumarium, pre-emergence, 0.25 lb/A; read-out: % plant inhibition
Method: as §1, §2, §3

Soybean [34] = test: pre-emergence herbicide test; conditions: Glycine max, pre-emergence, 0.25 lb/A; read-out: % plant inhibition
Method: as §1, §2, §3

Structure (SMILES): COC(=O)c1cc(-c2nn(C)c(C(F)(F)F)c2C)c(F)cc1Cl [Compound 18]
- inhibition at 280.212 g/ha (Wild Oats [1]): 80%
- inhibition at 280.212 g/ha (Downy Brome [2]): 85%
- % plant inhibition (Barnyardgrass [3]): 99% and 93%
- inhibition at 280.212 g/ha (Barnyardgrass [3]; Echinochloa crus-galli, pre-emergence, read-out: % plant inhibition): 95%
- inhibition at 280.212 g/ha (Wheat [4]): 0%
- inhibition at 280.212 g/ha (Green Foxtail [5]): 100%
- % plant inhibition (Seedling Johnsongrass [6]): 95% and 85%
- inhibition at 280.212 g/ha (Seedling Johnsongrass [6]; Sorghum halepense, pre-emergence, read-out: % plant inhibition): 90%
- inhibition at 280.212 g/ha (Common Chickweed [7]): 100%
- inhibition at 280.212 g/ha (Corn [8]): 15%
- inhibition at 280.212 g/ha (Bedstraw Catchweed [9]): 100%
- inhibition at 280.212 g/ha (Birdseye Speedwell [10]): 100%
- inhibition at 280.212 g/ha (Blackgrass [11]): 95%
- inhibition at 280.212 g/ha (Rape [12]): 100%
- % plant inhibition (Velvetleaf [13]): 100%
- inhibition at 280.212 g/ha (Velvetleaf [13]): 98%
- % plant inhibition (Giant Foxtail [14]): 100% and 99%
- inhibition at 280.212 g/ha (Giant Foxtail [14]): 95%
- inhibition at 280.212 g/ha (Wild Oats [15]): 20%
- inhibition at 280.212 g/ha (Downy Brome [16]): 25%
- inhibition at 280.212 g/ha (Barnyardgrass [17]): 5%
- inhibition at 280.212 g/ha (Wheat [18]): 7%
- inhibition at 280.212 g/ha (Morning Glory [19]): 50%
- inhibition at 280.212 g/ha (Green Foxtail [20]): 20%
- inhibition at 280.212 g/ha (Seedling Johnsongrass [21]): 35%
- inhibition at 280.212 g/ha (Common Chickweed [22]): 35%
- inhibition at 280.212 g/ha (Corn [23]): 15%
- inhibition at 280.212 g/ha (Bedstraw Catchweed [24]): 65%
- inhibition at 280.212 g/ha (Cocklebur [25]): 65%
- inhibition at 280.212 g/ha (Birdseye Speedwell [26]): 60%
- inhibition at 280.212 g/ha (Blackgrass [27]): 20%
- inhibition at 280.212 g/ha (Rape [28]): 15%
- inhibition at 280.212 g/ha (Velvetleaf [29]): 90%
- inhibition at 280.212 g/ha (Giant Foxtail [30]): 5%
- inhibition at 280.212 g/ha (Soybean [31]): 40%

Structure (SMILES): CCOC(=O)C(C)OC(=O)c1cc(-c2nn(C)c(C(F)(F)F)c2C)c(F)cc1Cl (stereo not shown) [Compound 20]
- inhibition at 280.212 g/ha (Wild Oats [1]): 25%
- inhibition at 280.212 g/ha (Downy Brome [2]): 65%
- inhibition at 280.212 g/ha (Wheat [4]): 0%
- % plant inhibition (Morning Glory [32]): 70%
- inhibition at 280.212 g/ha (Morning Glory [32]; Ipomoea, pre-emergence, read-out: % plant inhibition): 85%
- inhibition at 280.212 g/ha (Green Foxtail [5]): 100%
- inhibition at 280.212 g/ha (Common Chickweed [7]): 100%
- % plant inhibition (Corn [8]): 10%
- inhibition at 280.212 g/ha (Corn [8]): 15%
- inhibition at 280.212 g/ha (Bedstraw Catchweed [9]): 100%
- inhibition at 280.212 g/ha (Cocklebur [33]): 55%
- inhibition at 280.212 g/ha (Birdseye Speedwell [10]): 100%
- inhibition at 280.212 g/ha (Blackgrass [11]): 70%
- inhibition at 280.212 g/ha (Rape [12]): 95%
- inhibition at 280.212 g/ha (Velvetleaf [13]): 95%
- % plant inhibition (Giant Foxtail [14]): 80%
- inhibition at 280.212 g/ha (Giant Foxtail [14]): 98%
- inhibition at 280.212 g/ha (Soybean [34]): 5%
- inhibition at 280.212 g/ha (Wild Oats [15]): 45%
- inhibition at 280.212 g/ha (Downy Brome [16]): 40%
- inhibition at 280.212 g/ha (Barnyardgrass [17]): 85%
- inhibition at 280.212 g/ha (Wheat [18]): 22%
- inhibition at 280.212 g/ha (Morning Glory [19]): 98%
- inhibition at 280.212 g/ha (Green Foxtail [20]): 25%
- inhibition at 280.212 g/ha (Seedling Johnsongrass [21]): 80%
- inhibition at 280.212 g/ha (Common Chickweed [22]): 98%
- inhibition at 280.212 g/ha (Corn [23]): 8%
- inhibition at 280.212 g/ha (Bedstraw Catchweed [24]): 95%
- inhibition at 280.212 g/ha (Cocklebur [25]): 90%
- inhibition at 280.212 g/ha (Birdseye Speedwell [26]): 100%
- inhibition at 280.212 g/ha (Blackgrass [27]): 35%
- inhibition at 280.212 g/ha (Rape [28]): 25%
- inhibition at 280.212 g/ha (Velvetleaf [29]): 100%
- inhibition at 280.212 g/ha (Giant Foxtail [30]): 75%
- inhibition at 280.212 g/ha (Soybean [31]): 35%

Source: patent US5672715A, “Herbicidal substituted 3-aryl-pyrazoles” (Monsanto Company, priority 1995, dated 1997)
